Tests used:
Type in all cases: physicochemical
[1] = Wet particle size distribution by laser diffraction (Malvern Mastersizer 3000); details: dispersant heptane with 0.2% Span 80
Experimental: Wet particle size distributions were measured using a Malvern Mastersizer 3000 laser diffraction particle size analyzer, with stir speed set at 2200 rpm. Heptane with 0.2% by volume of Span 80 was used as dispersant. To obtain distribution measurements, the Hydro MV medium volume automated dispersion unit was filled with dispersant and aligned. The background was then measured. 80 to 100 mg of sample weighed into a 20 mL vial, to which approximately 3 mL of dispersant was added. The mass was adjusted based on the particle size, with obscuration between 5% and 16%. The whole sample was added to the Hydro MV unit, and the sample was analyzed five times after a 160 second pre-measurement delay. Analysis time was 20 seconds (10 seconds with the red laser, 10 seconds with the blue laser) with no delay between measurements. Data obtained was processed using Mie theory with a sample refractive index of 1.69 and absorption index of 0.1, using the general purpose model with normal sensitivity and the non-spherical particle type. 15 sets of raw data were averaged to form the Global Mean, which represents the average for a sample. If the sample was determined to be variable, further preparations were examined to determine which results were anomalous. Any anomalous results were discarded. Samples were thoroughly mixed prior to sampling (e.g., some samples were aliquoted using a spinning […]).

[2] = Thermogravimetric analysis (TA Instruments Q5000 TGA)
Experimental: Thermal gravimetric analysis of the samples was performed using the TA Instruments Q5000 TGA. Table 5 provides thermogravimetric analysis data for several distinct solid forms of Compound (I), including mass loss information from multiple replicates across different temperature ranges. As above, Comparator 1 corresponds to the solid form of Compound (I) prepared substantially in accordance with the process detailed in Step 1A in Example 1 of WO 2015/127310. Also, as above, Comparator 2 corresponds to the solid form of Compound (I) prepared substantially in accordance with the process detailed in Example 31 of WO 2014/039899. Comparator 3 corresponds to the solid form of Compound (I) prepared substantially in accordance with the process detailed in Step 1 in Example 1 of WO 2015/127310.

[3] = Mean bulk density, mean tapped density and Hausner ratio (modified USP <616>); details: for Hausner ratio: ratio of initial volume to constant volume (Vo/Vf)
Experimental: Mean bulk density and mean tapped density were determined using a modified method based on USP <616>. Powder was poured into a clean, dry pre-weighed 25 mL cylinder. Powder was added to a total volume of 20 mL to 25 mL without compacting the sample. The mass and initial volume (Vo) of the powder were recorded. The mean bulk density was determined as the average of the mass over initial volume across multiple samples. To determine mean tapped density, the sample was tapped using a Copley JV2000 tapped density tester using the following number of taps: 500, 750, and sets of 1250 taps up to 10,000. The volume was recorded after each set of taps, and the sample was tapped until it reached a constant volume (Vf). The mean tapped density was determined as the average of mass over constant volume across multiple samples. Each sample was analyzed in duplicate. The Hausner ratio was calculated as the ratio of initial volume to the constant volume (Vo/Vf).

[4] = Modulated differential scanning calorimetry, glass transition temperature (TA Instrument Q2000 DSC); details: for Tg at 25° C., 0% RH: 0% relative humidity
Experimental: Modulated differential scanning calorimetry (DSC) analysis was completed with a TA Instrument Q2000 DSC. The samples were heated at 2° C. min^−1, temperature modulation parameters of 0.318° C. (amplitude), and over a temperature range of 6-80° C. to 200° C. The samples were analyzed using a closed aluminum pan.

CC(C)(C=C(C#N)C(=O)N1CCCC(n2nc(-c3ccc(Oc4ccccc4)cc3F)c3c(N)ncnc32)C1)N1CCN(C2COC2)CC1 (stereo not shown) [Comparator 1, 2-[3-[4-amino-3-(2-fluoro-4-phenoxy-phenyl)pyrazolo[3,4-d]pyrimidin-1-yl]piperidine-1-carbonyl]-4-methyl-4-[4-(oxetan-3-yl)piperazin-1-yl]pent-2-enenitrile]
Wet particle size distribution D10 [1]: 18.3 μm
Wet particle size distribution D50 [1]: 237 μm
Wet particle size distribution D90 [1]: 694 μm
Mass loss during TGA ([2]; between 40° C. and 118° C.): 3.3% mass loss between 40 °C and 118 °C
Mass loss during TGA ([2]; between 118° C. and 237° C.): 3.2% mass loss between 118 °C and 237 °C
Mean bulk density [3]: 0.28 g/cc
Mean tapped density [3]: 0.39 g/cc
Hausner ratio [3]: 1.4

CC(C)(C=C(C#N)C(=O)N1CCCC(n2nc(-c3ccc(Oc4ccccc4)cc3F)c3c(N)ncnc32)C1)N1CCN(C2COC2)CC1 (stereo not shown) [Comparator 2, 2-[3-[4-amino-3-(2-fluoro-4-phenoxy-phenyl)pyrazolo[3,4-d]pyrimidin-1-yl]piperidine-1-carbonyl]-4-methyl-4-[4-(oxetan-3-yl)piperazin-1-yl]pent-2-enenitrile]
Tg at 25° C., 0% RH [4]: 90.1 °C
Wet particle size distribution D10 [1]: 56.9 μm
Wet particle size distribution D50 [1]: 258 μm
Wet particle size distribution D90 [1]: 575 μm
Mass loss during TGA ([2]; between 40° C. and 135° C.): 3.7% mass loss between 40 °C and 135 °C
Mass loss during TGA ([2]; between 135° C. and 233° C.): 2.3% mass loss between 135 °C and 233 °C
Mean bulk density [3]: 0.20 g/cc
Mean tapped density [3]: 0.27 g/cc
Hausner ratio [3]: 1.4

CC(C)(C=C(C#N)C(=O)N1CCCC(n2nc(-c3ccc(Oc4ccccc4)cc3F)c3c(N)ncnc32)C1)N1CCN(C2COC2)CC1 (stereo not shown) [Comparator 3, 2-[3-[4-amino-3-(2-fluoro-4-phenoxy-phenyl)pyrazolo[3,4-d]pyrimidin-1-yl]piperidine-1-carbonyl]-4-methyl-4-[4-(oxetan-3-yl)piperazin-1-yl]pent-2-enenitrile]
Tg at 25° C., 0% RH [4]: 90.1 °C
Mass loss during TGA ([2]; between 30° C. and 100° C.): 3.8% mass loss between 30 °C and 100 °C
Mass loss during TGA ([2]; between 100° C. and 140° C.): 17.6% mass loss between 100 °C and 140 °C

CC(C)(C=C(C#N)C(=O)N1CCCC(n2nc(-c3ccc(Oc4ccccc4)cc3F)c3c(N)ncnc32)C1)N1CCN(C2COC2)CC1 (stereo not shown) [Compound (I) prepared by a precipitation process described h] [2-[3-[4-amino-3-(2-fluoro-4-phenoxy-phenyl)pyrazolo[3,4-d]pyrimidin-1-yl]piperidine-1-carbonyl]-4-methyl-4-[4-(oxetan-3-yl)piperazin-1-yl]pent-2-enenitrile]
Tg at 25° C., 60% RH ([4]; 60% relative humidity, listed as Compound (I) prepared by precipitation process described herein (not micronized)): 69.6 °C
Wet particle size distribution D10 [1]: 1.9 μm
Wet particle size distribution D90 [1]: 476-683 μm
Mass loss during TGA ([2]; between 30° C. and 190° C.): 0.8% mass loss between 30 °C and 190° C.;
Mass loss during TGA ([2]; between 40° C. and 205° C.): 0.4% mass loss between 40 °C and 205° C.;
Mass loss during TGA ([2]; between 40° C. and 225° C.): 0.7% mass loss between 40 °C and 225 °C
Mass loss during TGA ([2]; between 43° C. and 230° C.): 1.9% mass loss between 43 °C and 230° C.;
Mass loss during TGA ([2]; between 44° C. and 230° C.): 1.0% mass loss between 44 °C and 230 °C
Hausner ratio [3]: 1.2

CC(C)(C=C(C#N)C(=O)N1CCCC(n2nc(-c3ccc(Oc4ccccc4)cc3F)c3c(N)ncnc32)C1)N1CCN(C2COC2)CC1 (stereo not shown) [Compound (I) prepared by a spray drying process described he] [2-[3-[4-amino-3-(2-fluoro-4-phenoxy-phenyl)pyrazolo[3,4-d]pyrimidin-1-yl]piperidine-1-carbonyl]-4-methyl-4-[4-(oxetan-3-yl)piperazin-1-yl]pent-2-enenitrile]
Tg at 25° C., 0% RH ([4]; listed as Compound (I) prepared by spray drying process described herein): 93.8 °C
Wet particle size distribution D10 [1]: 5.24 μm
Wet particle size distribution D50 [1]: 13.3 μm
Wet particle size distribution D90 [1]: 28.4 μm
Mass loss during TGA ([2]; between 35° C. and 230° C.): 1.2% mass loss between 35 °C and 230 °C
Mean bulk density [3]: 0.20 g/cc
Mean tapped density [3]: 0.28 g/cc
Hausner ratio [3]: 1.4
